B1: 3-dehydroquinate synthase (AvDHQS, Ava_4386) (Trichormus variabilis ATCC 29413) (protein)
chain: MTSVINVNLPTQSYEIAIAPASLDQIGQSLAGLKLGKKVLLVSNPTIFKHFGKVAVDSLEAAGFQVASYCLPAGERYKTLNSIQKLYDIALENRLERSSTMVALGGGVIGDMTGFAAATWLRGINVVQVPTTLLAMVDSAIGGKTGVNHPHGKNLIGAFHQPRFVLIDPQVLKTLPVREFRAGMAEVIKYGVIWDAELFNQLEQSKRLDQLRYIKPELMDAILTRSCQAKADVVGKDEKEGGLRAILNYGHTVGHAVESLTNYRLLKHGEAVGIGMVAAGQIAVNLGLWQQADADRQNALIEKAGLPTKLPAGLDIEGIIEALQLDKKVKDGKVRFVLPTQIGVVTVTDEVTSDHIRQVLQQM
notes: Ava_4386 in pET22b, C-terminal His-Tag, ∼39 kDa

Experiments:
[1] = molecular target: T1, 3-dehydroquinate synthase (AvDHQS, Ava_4386) (Trichormus variabilis, UniProt Q3M4V2); assay: Malachite green phosphate release assay with purified AvDHQS; Michaelis-Menten kinetics at […] 7dSh; format: biochemical
T1 construct: gene aroB; Ava_4386 in pET22b, C-terminal His-Tag, ∼39 kDa
T1 sequence (Q3M4V2 1-363): B1 chain

[2] = substrate: O=C(O)C(=O)C[C@@H](O)[C@H](O)[C@H](O)COP(=O)(O)O; assay: Malachite green phosphate release assay with purified AvDHQS; kM of the substrate; format: biochemical, Trichormus variabilis; settings: NAD^+

Molecule | Ki [1] [µM] | Km [2] [µM]
C[C@@H](O)[C@@H](O)[C@@H](O)[C@H](O)C(=O)CO [7dSh, 7-deoxy-D-altro-2-heptulose] | 17.6 | 
B1 |  | 1.8 ± 0.3

From paper PMC8261047, “In vivo Inhibition of the 3-Dehydroquinate Synthase by 7-Deoxysedoheptulose Depends on Promiscuous Uptake by Sugar Transporters in Cyanobacteria” (Frontiers in Microbiology, 2021)
